Test results as given in patent US20180099961A1, “PROTEIN KINASE INHIBITORS” (Princeton Drug Discovery Inc, priority 2016, published 2018).
Where two headings read alike, the source gives them in different places.

Tests used:
[1] = target: T1, ABL(E255K) (Homo sapiens, UniProt P00519, E255K); assay: Off-chip Mobility Shift Assay; type: biochemical; settings: read-out: IC50, recombinant ABL (E255K) activity
T1 construct: purchased Carna Biosciences

[2] = target: T2, BTK (Homo sapiens, UniProt Q06187); assay: Off-chip Mobility Shift Assay; type: biochemical; settings: read-out: IC50, recombinant BTK activity
T2 construct: purchased Carna Biosciences
T2 sequence (Q06187 whole entry): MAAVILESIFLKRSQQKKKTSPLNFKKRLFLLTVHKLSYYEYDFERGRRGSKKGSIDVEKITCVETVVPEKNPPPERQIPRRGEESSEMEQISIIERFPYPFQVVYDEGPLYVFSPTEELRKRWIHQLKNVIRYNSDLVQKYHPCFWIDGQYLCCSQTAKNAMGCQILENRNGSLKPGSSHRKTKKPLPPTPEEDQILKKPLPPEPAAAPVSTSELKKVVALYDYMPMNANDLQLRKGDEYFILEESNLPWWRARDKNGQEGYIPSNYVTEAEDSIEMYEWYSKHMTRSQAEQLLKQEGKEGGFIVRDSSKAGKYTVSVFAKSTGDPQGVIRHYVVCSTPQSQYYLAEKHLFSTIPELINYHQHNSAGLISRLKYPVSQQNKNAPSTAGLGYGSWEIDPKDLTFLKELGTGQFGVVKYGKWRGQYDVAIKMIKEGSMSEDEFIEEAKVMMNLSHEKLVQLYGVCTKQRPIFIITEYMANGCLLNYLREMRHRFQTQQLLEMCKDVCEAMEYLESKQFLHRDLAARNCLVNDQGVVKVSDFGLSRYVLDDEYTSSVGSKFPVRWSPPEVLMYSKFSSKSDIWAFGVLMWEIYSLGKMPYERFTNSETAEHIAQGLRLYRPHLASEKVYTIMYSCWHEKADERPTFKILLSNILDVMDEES

[3] = Lung tissue and plasma concentration ratios in mice; type: in vivo, CD-1 mouse; settings: single oral dose 5 mg/kg, 2-in-1 with dasatinib, all time points tested
Protocol: CD-1 mouse (approximate weight 30 g, N=3) were dosed by oral gavage at 10 mL/kg. Blood samples were collected into tubes containing EDTA as the anticoagulant at 1, 2, 4, 10 h post-dosing for Compound X, and predose, 1, 2, 3, 8, 10 and 24 h post-dosing for Compound XI. The plasma samples were prepared by centrifugation. Lung samples were also collected at each of the above time points. The lung samples were homogenated in 4× distilled water (v/w). The plasma samples and the homogenated lung tissue samples were mixed with 3× volumes of acetonitrile containing 100 nM reserpine as the internal standard, and centrifuged at 4000 RPM for 15 min. The supernatants were injected for LC/MS analysis which were carried out on a AB Sciex 4000 Q Trap LC/MS/MS system coupled with Shimadzu Prominence UFLCXR 20 series (including a CBM-20A controller, two LC-20ADXR solvent delivery units, SIL-20AC HT autosampler, CTO-20A column oven, and a SPD-20A UV detector). The samples were separated on a Phenomenex Columbus column (C18, 4 μm, 50×2 mm) eluted with two solvent systems: 2 mM ammonium acetate in water containing 0.1% formic acid (A) and methanol (B) at a linear gradient starting at 25%. Electrospray ionization in positive mode was used to acquire LC/MS/MS data.

[4] = Pharmacokinetics in Sprague-Dawley rats, 2-in-1 dosing; type: in vivo; settings: for intravenous plasma clearance compared to dasatinib and compound III / intravenous volume of distribution compared to dasatinib and compound III: Sprague-Dawley rats; for clearance / Vd: single dose (Table 3); for clearance: read-out: CL (plasma clearance) (converted); for Vd: read-out: V (volume of distribution); for AUC(0-inf) / AUC(0-t) / half-life / Cmax / Tmax: single dose, plasma (Table 3); for half-life: read-out: t½ (converted)
Protocol: Sprague-Dawley rats (approximate weight 275-300 g, N=3) were dosed intravenously at 5 mL/kg and orally at 10 mL/kg with the above dosing solutions. Blood samples were collected into tubes containing EDTA as the anticoagulant at 0, 0.25 (intravenous only), 0.5, 1, 2, 4, 8, 10, and 24 h post-dosing, and plasma samples were prepared by centrifugation. The plasma samples were mixed with 3× volumes of acetonitrile containing 100 nM reserpine as the internal standard, and centrifuged at 4000 RPM for 15 min. The supernatants were injected for LC/MS analysis which were carried out on a AB Sciex 4000 Q Trap LC/MS/MS system coupled with Shimadzu Prominence UFLCXR 20 series (including a CBM-20A controller, two LC-20ADXR solvent delivery units, SIL-20AC HT autosampler, CTO-20A column oven, and a SPD-20A UV detector). The samples were separated on a Phenomenex Columbus column (C18, 4 μm, 50×2 mm) eluted with two solvent systems: 2 mM ammonium acetate in water containing 0.1% formic acid (A) and methanol (B) at a linear gradient starting with 25% B. Electrospray ionization in positive mode was used to acquire LC/MS/MS data.

[5] = target: T3, ABL (Homo sapiens, UniProt P00519); assay: Off-chip Mobility Shift Assay; type: biochemical; settings: read-out: IC50, recombinant ABL activity
T3 construct: purchased Carna Biosciences
T3 sequence (P00519 whole entry): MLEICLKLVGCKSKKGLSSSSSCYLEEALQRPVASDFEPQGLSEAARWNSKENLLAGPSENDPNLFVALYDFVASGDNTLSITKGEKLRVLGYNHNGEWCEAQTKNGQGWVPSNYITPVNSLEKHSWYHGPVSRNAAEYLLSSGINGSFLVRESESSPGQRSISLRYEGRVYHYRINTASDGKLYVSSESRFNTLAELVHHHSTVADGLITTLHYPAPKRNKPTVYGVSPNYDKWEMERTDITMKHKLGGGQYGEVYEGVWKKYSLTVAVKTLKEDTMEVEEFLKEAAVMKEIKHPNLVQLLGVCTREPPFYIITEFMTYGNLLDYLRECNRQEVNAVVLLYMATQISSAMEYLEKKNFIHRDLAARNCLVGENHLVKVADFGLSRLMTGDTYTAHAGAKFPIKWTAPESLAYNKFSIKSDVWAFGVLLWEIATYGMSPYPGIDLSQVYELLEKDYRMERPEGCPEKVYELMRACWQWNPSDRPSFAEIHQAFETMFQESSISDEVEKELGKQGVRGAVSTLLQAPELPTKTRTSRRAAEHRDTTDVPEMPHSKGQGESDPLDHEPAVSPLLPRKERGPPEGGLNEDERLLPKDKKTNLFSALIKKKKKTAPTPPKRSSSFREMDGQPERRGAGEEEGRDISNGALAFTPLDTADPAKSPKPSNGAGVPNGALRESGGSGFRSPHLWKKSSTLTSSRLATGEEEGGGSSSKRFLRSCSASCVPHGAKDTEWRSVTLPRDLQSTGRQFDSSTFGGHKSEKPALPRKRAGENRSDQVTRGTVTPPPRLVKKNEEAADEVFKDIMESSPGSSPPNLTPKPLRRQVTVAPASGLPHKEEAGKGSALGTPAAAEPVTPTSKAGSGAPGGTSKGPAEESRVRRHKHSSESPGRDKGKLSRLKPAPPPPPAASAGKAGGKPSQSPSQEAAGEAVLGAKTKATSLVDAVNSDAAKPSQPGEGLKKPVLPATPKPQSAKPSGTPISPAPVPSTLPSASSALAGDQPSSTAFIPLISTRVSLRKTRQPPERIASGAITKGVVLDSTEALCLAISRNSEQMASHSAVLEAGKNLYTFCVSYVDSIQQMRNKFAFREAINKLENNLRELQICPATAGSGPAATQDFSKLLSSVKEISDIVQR

[6] = target: T4, BTK (C481S) (Homo sapiens, UniProt Q06187, C481S); assay: Off-chip Mobility Shift Assay; type: biochemical; settings: read-out: IC50, recombinant BTK (C481S) activity
T4 construct: purchased Carna Biosciences
T4 sequence (Q06187 whole entry C481S): as the sequence (Q06187 whole entry) above, with C481S counted along it

[7] = Metabolic stability in human liver microsomes; type: in vitro ADME; settings: for metabolic stability as compared to dasatinib: human liver microsomes; for microsomal CLint at 1 μM / half-life at 1 μM: human, liver microsomes, human liver microsomes 0.5 mg/mL, NADPH and UDPGA, 37° C.; for microsomal CLint at 1 μM: read-out: CLint (intrinsic clearance); for half-life at 1 μM: read-out: In vitro t1/2
Protocol: FIG. 1. Metabolic stability of compounds in human liver microsomal incubations. […] Concentrations at specified times were determined by LC-MS/MS.
The incubation reactions at various time points were quenched by adding 2× volumes of acetonitrile containing 100 nM reserpine. The quenched incubation samples were centrifuged at 4000 RPM for 10 min, and the supernatants injected for LC/MS/MS analysis. LC/MS/MS analysis was carried out on a AB Sciex 4000 Q Trap LC/MS/MS system coupled with Shimadzu Prominence UFLCXR 20 series (including a CBM-20A controller, two LC-20ADXR solvent delivery units, SIL-20AC HT autosampler, CTO-20A column oven, and a SPD-20A UV detector).

[8] = target: T5, PDGFRα (Homo sapiens, UniProt P16234); assay: Off-chip Mobility Shift Assay; type: biochemical; settings: read-out: IC50, recombinant PDGFRα activity
T5 construct: purchased Carna Biosciences
T5 sequence (P16234 24-1089): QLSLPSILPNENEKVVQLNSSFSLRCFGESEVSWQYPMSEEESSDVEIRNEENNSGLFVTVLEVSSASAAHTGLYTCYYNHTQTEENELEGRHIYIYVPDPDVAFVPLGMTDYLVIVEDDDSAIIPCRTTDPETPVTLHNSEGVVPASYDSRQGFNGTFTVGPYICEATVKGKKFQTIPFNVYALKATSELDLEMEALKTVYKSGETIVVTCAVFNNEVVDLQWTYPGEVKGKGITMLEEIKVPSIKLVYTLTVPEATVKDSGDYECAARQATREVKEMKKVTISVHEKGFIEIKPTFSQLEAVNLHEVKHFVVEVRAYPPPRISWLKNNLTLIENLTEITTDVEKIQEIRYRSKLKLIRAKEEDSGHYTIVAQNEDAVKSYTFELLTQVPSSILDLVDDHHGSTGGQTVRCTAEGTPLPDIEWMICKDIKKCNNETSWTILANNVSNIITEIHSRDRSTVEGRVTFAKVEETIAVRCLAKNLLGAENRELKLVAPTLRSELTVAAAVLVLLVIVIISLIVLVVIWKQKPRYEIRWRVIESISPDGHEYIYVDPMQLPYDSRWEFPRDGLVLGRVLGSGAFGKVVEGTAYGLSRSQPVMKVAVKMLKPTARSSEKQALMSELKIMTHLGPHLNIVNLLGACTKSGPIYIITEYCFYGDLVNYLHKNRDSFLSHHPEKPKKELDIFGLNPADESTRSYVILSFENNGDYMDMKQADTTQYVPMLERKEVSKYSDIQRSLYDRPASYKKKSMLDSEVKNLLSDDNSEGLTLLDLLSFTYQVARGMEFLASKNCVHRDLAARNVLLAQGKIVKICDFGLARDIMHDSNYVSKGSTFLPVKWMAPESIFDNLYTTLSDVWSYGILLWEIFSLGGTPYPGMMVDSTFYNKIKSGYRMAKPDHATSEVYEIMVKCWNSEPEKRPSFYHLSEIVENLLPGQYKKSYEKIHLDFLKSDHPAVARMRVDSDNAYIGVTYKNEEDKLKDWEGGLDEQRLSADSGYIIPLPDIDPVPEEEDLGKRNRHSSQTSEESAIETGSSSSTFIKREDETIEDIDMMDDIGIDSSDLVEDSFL

[9] = target: T6, PIK3CA/PIK3R1 (Homo sapiens, UniProt P42336); assay: Off-chip Mobility Shift Assay; type: biochemical; settings: read-out: IC50, recombinant PIK3CA/PIK3R1 activity
T6 construct: purchased Carna Biosciences
T6 sequence (P42336 whole entry): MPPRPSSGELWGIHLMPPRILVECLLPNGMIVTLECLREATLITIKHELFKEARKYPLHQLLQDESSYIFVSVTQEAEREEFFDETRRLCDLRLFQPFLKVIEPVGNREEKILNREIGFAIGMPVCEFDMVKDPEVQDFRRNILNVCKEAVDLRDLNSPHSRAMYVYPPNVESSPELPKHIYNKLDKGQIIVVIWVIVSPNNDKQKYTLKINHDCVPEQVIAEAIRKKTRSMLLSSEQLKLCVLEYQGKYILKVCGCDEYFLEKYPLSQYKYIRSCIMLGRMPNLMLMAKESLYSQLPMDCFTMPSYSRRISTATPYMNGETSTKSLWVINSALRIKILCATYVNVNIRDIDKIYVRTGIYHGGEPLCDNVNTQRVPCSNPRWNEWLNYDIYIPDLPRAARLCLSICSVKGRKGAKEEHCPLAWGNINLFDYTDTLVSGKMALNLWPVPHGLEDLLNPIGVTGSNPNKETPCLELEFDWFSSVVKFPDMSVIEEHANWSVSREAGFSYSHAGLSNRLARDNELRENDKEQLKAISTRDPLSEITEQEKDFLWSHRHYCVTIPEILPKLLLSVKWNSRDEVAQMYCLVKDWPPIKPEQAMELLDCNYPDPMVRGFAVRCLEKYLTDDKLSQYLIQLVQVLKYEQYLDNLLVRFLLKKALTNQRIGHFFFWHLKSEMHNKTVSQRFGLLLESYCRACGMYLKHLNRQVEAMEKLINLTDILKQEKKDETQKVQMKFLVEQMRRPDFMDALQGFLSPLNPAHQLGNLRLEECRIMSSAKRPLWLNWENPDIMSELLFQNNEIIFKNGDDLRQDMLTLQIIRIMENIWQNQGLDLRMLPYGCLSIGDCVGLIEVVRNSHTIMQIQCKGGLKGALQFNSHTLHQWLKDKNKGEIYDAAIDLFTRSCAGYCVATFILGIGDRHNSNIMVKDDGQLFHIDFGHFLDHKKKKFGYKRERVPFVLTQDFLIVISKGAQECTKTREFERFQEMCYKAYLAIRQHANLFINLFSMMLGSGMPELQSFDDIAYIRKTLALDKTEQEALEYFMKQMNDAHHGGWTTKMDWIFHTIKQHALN
T6 sequence (P27986 whole entry partner): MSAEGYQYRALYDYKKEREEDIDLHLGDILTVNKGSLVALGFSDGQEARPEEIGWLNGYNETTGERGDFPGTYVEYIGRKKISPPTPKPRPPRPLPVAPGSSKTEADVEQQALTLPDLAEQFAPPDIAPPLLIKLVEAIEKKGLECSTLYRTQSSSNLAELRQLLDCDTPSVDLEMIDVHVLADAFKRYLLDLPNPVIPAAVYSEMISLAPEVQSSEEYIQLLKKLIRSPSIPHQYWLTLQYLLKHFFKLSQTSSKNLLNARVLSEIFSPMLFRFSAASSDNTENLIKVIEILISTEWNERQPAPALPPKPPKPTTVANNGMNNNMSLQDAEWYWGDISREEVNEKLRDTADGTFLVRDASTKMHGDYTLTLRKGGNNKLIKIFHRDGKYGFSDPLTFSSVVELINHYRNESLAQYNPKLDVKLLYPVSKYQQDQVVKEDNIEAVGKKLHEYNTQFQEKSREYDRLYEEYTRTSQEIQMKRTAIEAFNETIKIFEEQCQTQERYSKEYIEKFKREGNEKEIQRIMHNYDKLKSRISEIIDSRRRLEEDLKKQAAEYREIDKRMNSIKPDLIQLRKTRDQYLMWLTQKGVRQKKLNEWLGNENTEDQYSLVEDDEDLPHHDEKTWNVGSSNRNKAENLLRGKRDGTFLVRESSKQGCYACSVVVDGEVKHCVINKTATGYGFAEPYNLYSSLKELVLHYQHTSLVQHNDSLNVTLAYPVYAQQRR

[10] = tested on: RAF1; assay: Off-chip Mobility Shift Assay; type: biochemical; settings: 10 nM
[11] = target: T7, ACK (Homo sapiens, UniProt Q07912); assay: Off-chip Mobility Shift Assay; type: biochemical; settings: read-out: IC50, recombinant ACK activity
T7 construct: purchased Carna Biosciences

[12] = Sprague-Dawley, rat, plasma, iv, 1 mg/kg, intravenous 1 mg/kg
[13] = Sprague-Dawley, rat, plasma, po, 5 mg/kg, PO 5 mg/kg
[14] = Sprague-Dawley, rat, PO 5 mg/kg

T1 sequence (P00519 whole entry E255K): as the sequence (P00519 whole entry) above, with E255K counted along it

| SMILES | IC50 [1] | IC50 [2] | ratio of lung tissue concentration to plasma concentration as compared to dasatinib [3] | intravenous plasma clearance compared to dasatinib and compound III [4] | intravenous volume of distribution compared to dasatinib and compound III [4] | clearance [4, 12] | Vd [4, 12] | AUC(0-inf) [4, 12] | AUC(0-t) [4, 12] | half-life [4, 12] | AUC(0-inf) [4, 13] | AUC(0-t) [4, 13] | half-life [4, 13] | Cmax [4, 14] | Tmax [4, 14] | IC50 [5] | IC50 [6] | metabolic stability as compared to dasatinib [7] | microsomal CLint at 1 μM [7] | half-life at 1 μM [7] | further results |
| --- | --- | --- | --- | --- | --- | --- | --- | --- | --- | --- | --- | --- | --- | --- | --- | --- | --- | --- | --- | --- | --- |
| Cc1nc(Nc2ncc(C(=O)Nc3c(C)cccc3Cl)s2)cc(N2CC[C@@H](O)C2)n1 [Compound XI, N-(2-chloro-6-methylphenyl)-2-[[2-methyl-6-((R)-3-hydroxypyrrolidin-1-yl)pyrimidin-4-yl]amino]thiazole-5-carboxamide] | < 1 nM | < 1 nM | significantly lower | much lower | significantly lower | 6.77 mL/min/kg | 1 L/kg | 2480 ± 243 ng·h/mL | 2480 ± 243 ng·h/mL | 1.6 ± 0.2 h | 1500 ± 273 ng·h/mL | 1420 ± 343 ng·h/mL | 6 ± 3.6 h | 102 ± 86 ng/mL | 0.5 h | < 1 nM | < 1 nM | significantly greater stability | < 24 µL/min/mg | > 0.983 h | bioavailability ([4]; Sprague-Dawley, rat, plasma, PO 5 mg/kg versus intravenous 1 mg/kg, AUCinf dose normalized (Table 3), read-out: F (percent oral bioavailability)): 24 ± 33.1% |
| [2H]c1cc(C)c(NC(=O)c2cnc(Nc3cc(N4CCCCC4)nc(C)n3)s2)c(Cl)c1 [Compound I, N-(2-chloro-4-deuterio-6-methyl-phenyl)-2-[[2-methyl-6-(1-piperidyl)pyrimidin-4-yl]amino]thiazole-5-carboxamide] | – | ~0.2 nM | – | – | – | – | – | – | – | – | – | – | – | – | – | – | – | significantly greater stability | – | – | IC50 [8]: ~1.4 nM; IC50 [9]: ~12 nM; inhibition of RAF1 [10]: < 50%; IC50 [11]: ~0.5 nM |
| Cc1nc(Nc2ncc(C(=O)Nc3c(C)cccc3Cl)s2)cc(N2CC[C@H](O)C2)n1 [Compound X, N-(2-chloro-6-methylphenyl)-2-[[2-methyl-6-((S)-3-hydroxypyrrolidin-1-yl)pyrimidin-4-yl]amino]thiazole-5-carboxamide] | < 1 nM | < 1 nM | significantly lower | much lower | significantly lower | 6.75 mL/min/kg | 1 L/kg | 2520 ± 446 ng·h/mL | 2520 ± 446 ng·h/mL | 1.6 ± 0.2 h | 1200 ± 349 ng·h/mL | 1120 ± 369 ng·h/mL | 6.8 ± 4.1 h | 93 ± 101 ng/mL | 0.5 h | < 1 nM | < 1 nM | significantly greater stability | < 24 µL/min/mg | > 0.983 h | – |
